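Five concentrations, 48 hours, 96-well plates. Abbreviation: GI50, concentration required for 50% inhibition of growth.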 The source made the active and inactive calls. Rule as the data show it: active = GI50 up to about 1.1 µM and inactive = higher.
Columns and labels:
Experiment in all cases: NCI-60 cell line screen, 48 h
DLD-1 = test system: DLD-1
DMS-114 = test system: DMS-114
DMS-273 = test system: DMS-273
HOP-18 = test system: HOP-18
M19-MEL = test system: M19-MEL
RXF 631 = test system: RXF 631
SNB-78 = test system: SNB-78
XF498 = test system: XF498
BT-549 = test system: BT-549

Compound | GI50 (DLD-1) | GI50 (DMS-114) | GI50 (DMS-273) | GI50 (HOP-18) | GI50 (M19-MEL) | GI50 (RXF 631) | GI50 (SNB-78) | GI50 (XF498) | GI50 (BT-549)
Nc1nc(CC2(O)CCCCC2)cc(-c2ccccc2)n1 | 22.1 µM (inactive) | 23 µM (inactive) | > 44.9 µM (inactive) | 35.5 µM (inactive) | 28.1 µM (inactive) | 34.4 µM (inactive) | > 48.6 µM (inactive) |  | 
CC#C[C@@]1(O)CCCCC1O (some centres not stated) |  | > 100 µM (inactive) | > 100 µM (inactive) | > 100 µM (inactive) | > 100 µM (inactive) | > 100 µM (inactive) | > 100 µM (inactive) | > 100 µM (inactive) | 
FC1OC2OC1C(OCc1ccccc1)C(OCc1ccccc1)C2OCc1ccccc1 (configuration not stated) | 37.9 µM (inactive) | 29.5 µM (inactive) | > 100 µM (inactive) | 24.3 µM (inactive) | 29.8 µM (inactive) | 71.1 µM (inactive) | 61.1 µM (inactive) | 23.6 µM (inactive) | 
O=C1COc2cc3c(cc2N1)SCCC(=O)N3 | > 100 µM (inactive) | > 100 µM (inactive) | > 100 µM (inactive) | > 100 µM (inactive) | > 100 µM (inactive) | > 100 µM (inactive) |  | > 100 µM (inactive) | 
NC(=O)NC12CC3CC(CC(F)(C3)C1)C2 | > 100 µM (inactive) | > 100 µM (inactive) | > 100 µM (inactive) |  | > 100 µM (inactive) | > 100 µM (inactive) | > 100 µM (inactive) | > 100 µM (inactive) | 
O=C(Nc1cccc([N+](=O)[O-])c1)C(=O)C(C(=O)c1ccccc1-c1ccccc1)C1OC(=O)c2ccccc21 (configuration not stated) | 19.9 µM (inactive) | 14.5 µM (inactive) |  |  | 15.9 µM (inactive) | 22 µM (inactive) | 23.2 µM (inactive) | 20.4 µM (inactive) | 
C/C(=N\NC(=[Se])N(C)C)c1ccccn1 | < 0.01 µM (active) | < 0.01 µM (active) | 0.316 µM (active) | 2.1 µM (inactive) | 0.339 µM (active) | < 0.01 µM (active) | 2.97 µM (inactive) | 0.198 µM (active) | 7.31 µM (inactive)
CC(=O)NC(CCCN(Cc1ccccc1)C(=O)N(C)N=O)C(=O)NCc1ccccc1 (configuration not stated) | > 100 µM (inactive) | > 100 µM (inactive) | > 100 µM (inactive) |  | > 100 µM (inactive) | > 100 µM (inactive) | > 100 µM (inactive) | > 100 µM (inactive) | 
COC(=O)C(C#CCCCCC#CC(NC(=O)OCc1ccccc1)(C(=O)OC)C(F)(F)F)(NC(=O)OCc1ccccc1)C(F)(F)F (configuration not stated) | > 100 µM (inactive) | 28.1 µM (inactive) |  | > 100 µM (inactive) | > 100 µM (inactive) | > 100 µM (inactive) | > 100 µM (inactive) |  | 
CCc1cccc(C)c1NC(=O)CCc1nnc2s/c(=C\c3cccc4ccccc34)c(=O)n12 | 60 µM (inactive) | 36 µM (inactive) | 61.4 µM (inactive) |  | > 100 µM (inactive) | > 100 µM (inactive) | > 100 µM (inactive) | > 100 µM (inactive) | 
Cc1cccc(C(C)(C)C)c1NC(=O)CC1Sc2ccccc2NC1=O (configuration not stated) | 57.4 µM (inactive) | 24.8 µM (inactive) | 32.9 µM (inactive) | 57.9 µM (inactive) | 66.8 µM (inactive) | 36.7 µM (inactive) |  |  | 

Reference: ChEMBL document CHEMBL1201862, “PubChem BioAssay data set” (2004)
